Assay: Bio-distribution of isoguvacine by LC-MS
Type: in vivo, mouse
Experimental: FIGS. 19A-19N show acute administration of the peripherally-restricted GABAA receptor agonist isoguvacine improves tactile hypersensitivity in five genetic and one environmental model of ASD. […] Two-way ANOVA with post-hoc Sidak's test, *, p<0.05. FIG. 19B: Response to a light air puff stimulus alone in mice following i.p. administration of either saline or 2 mg/kg midazolam treatment. Responses are expressed as percent of startle response to a 125 dB noise. Two-way ANOVA with post-hoc Sidak's test, *, p<0.05. FIG. 19C: Magnitude of startle response to a 125 dB noise in mice following i.p. administration of either saline or 2 mg/kg midazolam treatment. Responses are expressed as percent of startle response to a 125 dB noise. Two-way ANOVA with post-hoc Sidak's test, *, p<0.05. FIG. 19D: Magnitude of startle response to a 125 dB noise in mice following i.p. administration of saline, midazolam (2 mg/kg) or a peripherally-restricted GABAA receptor agonist, isoguvacine (2 mg/kg). Responses are expressed as percent of startle response to a 125 dB noise. Two-way ANOVA with post-hoc Sidak's test, *, p<0.05. FIGS. 19E-19G: Liquid chromatography mass spectrometry (LC-MS) quantified isoguvacine concentrations in cerebrospinal fluid (CSF) (FIG. 19E), blood (FIG. 19F) or liver (FIG. 19G) samples of mice treated with: i.p. saline, i.p. isoguvacine (“Iso.”, 20 mg/kg, samples collected 1, 3 or 24 hours post-injection), intracerebral injection isoguvacine (20 mg/kg, 1 hour post-injection), i.p. diazepam (“DZ”, 20 mg/kg, 1 hour post injection) or intracerebral injection diazepam (20 mg/kg, 1 hour post injection). FIG. 19H: Normalized peak chloride flux through α1β3γ2- and α2β3γ2-containing GABAA receptors in response to isoguvacine application. […] FIGS. 19I-19K: GABAA receptor subunit RNA expression levels across peripheral somatosensory neuron subtypes, for the alpha (FIG. 19I), beta (FIG. 19J), and gamma (FIG. 19K) subunit types. […] Two-way ANOVA with post-hoc Sidak's test, *, p<0.05. FIG. 19M: Response to a light air puff stimulus alone in mice following i.p. administration of either saline or 2 mg/kg isoguvacine treatment. Responses are expressed as percent of startle response to a 125 dB noise. Two-way ANOVA with post-hoc Sidak's test, *, p<0.05. FIG. 19N: Magnitude of startle response to a 125 dB noise in mice following i.p. administration of either saline or 2 mg/kg isoguvacine treatment. Responses are expressed as percent of startle response to a 125 dB noise. […]
FIGS. 28A-28U are related to FIGS. 21A-210. FIG. 28A: Liquid chromatography mass spectrometry (LC-MS) quantified isoguvacine concentrations in brain homogenate samples of mice treated with isoguvacine (2 mg/kg, i.p.) from P1-42. […] Responses are expressed as percent of startle response to a 125 dB startle noise. […]

[1] = after six-week treatment, 2 mg/kg i.p. daily starting at P0

## O=C(O)C1=CCNCC1 [Isoguvacine, isoguvacine]
20 mg/kg i.p.
  drug in blood and liver: detected in the blood and liver
  drug in brain or cerebrospinal fluid: undetectable in the brain or cerebrospinal fluid
[1]
  drug in brain or spinal cord: not the brain or spinal cord
  drug in liver: detected in liver

From US12252457B2, “Compositions and methods for reducing tactile dysfunction, anxiety, and social impairment” (President and Fellows of Harvard College, priority 2018, dated 2025)
